US8987445B2, “Sulfonamide compounds having TRPM8 antagonistic activity” (Mitsubishi Tanabe Pharma Corporation, priority 2011, dated 2015)

Biological target: human TRPM8 (Homo sapiens (Human), UniProt Q7Z2W7)
Assay: TRPM8 inhibition assay (menthol-induced calcium influx, FDSS)
Format: cell-based
Conditions: HEK293 cells stably expressing human TRPM8; 100 μM menthol; Fura-2AM Ca2+ signal; read-out: TRPM8 Blocking Test (IC50)
Experimental: The functional activity of compounds was determined by measuring changes in intracellular calcium concentration using a Ca^2+ sensitive fluorescent dye. The changes in fluorescent signal were monitored by the cell imaging technology by Hamamatsu Photonics's Functional Drug Screening System (FDSS). […] HEK293 cells stably expressing human TRPM8 were grown in flasks. On assay day, the culture medium was removed, and cells were washed with phosphate-buffered saline (PBS) and harvested with PBS containing 2 mM ethylenediaminetetraacetic acid, disodium salt (EDTA, 2Na). […] Subsequently, suspended 20,000 to 50,000 cells per well were incubated with test compound (at varying concentrations) in each well for 20 min at 37° C. Changes in intracellular Ca^2+ evoked by 100 μM menthol were measured for 2 min using FDSS. IC50 vales were determined from four-point concentration-response studies. Curves were generated using the average of quadruplicate wells for each data point.

Sequence of human TRPM8 (Q7Z2W7 whole entry): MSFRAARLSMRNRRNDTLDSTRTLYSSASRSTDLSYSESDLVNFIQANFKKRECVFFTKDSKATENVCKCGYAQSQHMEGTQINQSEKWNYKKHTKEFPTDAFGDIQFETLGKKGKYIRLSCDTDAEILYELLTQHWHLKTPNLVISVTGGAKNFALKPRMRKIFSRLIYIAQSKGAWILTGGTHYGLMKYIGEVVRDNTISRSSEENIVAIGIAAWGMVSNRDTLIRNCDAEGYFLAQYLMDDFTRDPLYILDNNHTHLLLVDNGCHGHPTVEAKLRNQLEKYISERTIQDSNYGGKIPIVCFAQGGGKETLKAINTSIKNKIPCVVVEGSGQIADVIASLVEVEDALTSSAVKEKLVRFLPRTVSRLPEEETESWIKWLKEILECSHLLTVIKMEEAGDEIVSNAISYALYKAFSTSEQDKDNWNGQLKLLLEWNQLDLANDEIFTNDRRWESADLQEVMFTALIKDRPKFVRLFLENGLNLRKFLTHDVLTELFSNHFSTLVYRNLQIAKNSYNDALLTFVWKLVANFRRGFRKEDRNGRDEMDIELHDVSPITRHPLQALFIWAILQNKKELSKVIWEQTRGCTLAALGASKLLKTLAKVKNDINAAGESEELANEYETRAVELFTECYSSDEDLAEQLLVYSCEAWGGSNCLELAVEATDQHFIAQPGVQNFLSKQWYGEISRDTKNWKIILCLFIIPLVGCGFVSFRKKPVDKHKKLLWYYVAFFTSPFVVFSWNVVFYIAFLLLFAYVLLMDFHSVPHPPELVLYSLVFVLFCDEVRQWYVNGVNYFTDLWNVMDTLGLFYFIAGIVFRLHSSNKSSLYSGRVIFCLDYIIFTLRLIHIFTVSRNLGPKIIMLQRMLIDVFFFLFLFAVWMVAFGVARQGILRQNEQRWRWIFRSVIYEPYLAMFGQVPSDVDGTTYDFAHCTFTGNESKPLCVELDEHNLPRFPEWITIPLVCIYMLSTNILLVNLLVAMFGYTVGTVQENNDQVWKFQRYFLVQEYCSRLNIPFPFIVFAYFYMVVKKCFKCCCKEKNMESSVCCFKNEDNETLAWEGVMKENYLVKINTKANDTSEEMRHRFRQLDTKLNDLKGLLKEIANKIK

| Structure (SMILES) | IC50 |
| --- | --- |
| Cc1c(N(Cc2ccc(C(F)(F)C3CC3)c(Cl)c2)S(=O)(=O)c2ccc(C(=O)O)cc2)nc(C2CC2)c2ccccc12 [Example 181] | 1 nM |
| Cc1cc2ccccc2nc1N(Cc1ccc(C(F)(F)C2CC2)c(Cl)c1)S(=O)(=O)c1ccc(C(=O)O)cc1 [Example 202] | 1.4 nM |
| CCONC(=O)c1ccc(S(=O)(=O)N(Cc2ccc(OC(F)(F)F)cc2)c2ncc3ccccc3c2C)cc1 [Example 240] | 18 nM |
| Cc1cc2ccc(F)cc2nc1N(Cc1ccc(OC(F)(F)F)cc1)S(=O)(=O)c1ccc(C(=O)O)cc1 [Example 146] | 70 nM |
| O=C(O)c1ccc(S(=O)(=O)N(c2ncc3ccccc3c2C2CC2)C2CCc3cc(OC(F)(F)F)ccc32)cc1 (centres unmarked) [Example 187] | 128 nM |
| Cc1nc2ccc(CN(c3ncc4ccccc4c3C)S(=O)(=O)c3ccc(C(=O)O)cc3)cc2s1 [Example 190] | 148 nM |
| Cc1c(N(Cc2ccc(-c3ccccc3)nc2)S(=O)(=O)c2ccc(C(=O)O)cc2)ncc2ccccc12 [Example 70] | 95 nM |
| Cc1cccc2cnc(N(Cc3ccc(OC(F)(F)F)cc3)S(=O)(=O)c3ccc(C(=O)O)cc3)c(C)c12 [Example 137] | 3.1 nM |
| Cc1c(N(Cc2ccc3c(c2)CC(C)(C)C3)S(=O)(=O)c2ccc(C(=O)O)cc2)ncc2ccccc12 [Example 62] | 8.3 nM |
| Cc1c(N(Cc2cc3cc(Cl)ccc3s2)S(=O)(=O)c2ccc(C(=O)O)cc2)ncc2ccccc12 [Example 200] | 5.4 nM |
| O=C(O)c1ccc(S(=O)(=O)N(Cc2ccc(OC(F)(F)F)cc2)c2cc3ccccc3cn2)cc1 [Example 156] | 23 nM |
| Cc1c(N(Cc2cc3c(F)cc(F)cc3s2)S(=O)(=O)c2ccc(C(=O)O)cc2)ncc2ccccc12 [Example 194] | 1.3 nM |
| Cc1c(N(Cc2ccc3c(Cl)n[nH]c3c2)S(=O)(=O)c2ccc(C(=O)O)cc2)ncc2ccccc12 [Example 176] | 21 nM |
| Cn1ccc2c(Cl)cnc(N(Cc3ccc(OC(F)(F)F)cc3)S(=O)(=O)c3ccc(C(=O)O)cc3)c21 [Example 6, sodium 4-({(4-chloro-1-methyl-1H-pyrrolo[2,3-c]pyridin-7-yl)[4-(trifluoromethoxy)benzyl]amino}sulfonyl)benzoate] | 22 nM |
| COC(C)(c1ccc(CN(c2ncc3ccccc3c2C)S(=O)(=O)c2ccc(C(=O)O)cc2)cc1Cl)C(F)(F)F (centres unmarked) [Example 222] | 1.6 nM |
| O=C(O)c1ccc(S(=O)(=O)N(Cc2ccc(OC(F)(F)F)cc2)c2ncc(Cl)c3sccc23)cc1 [Example 212] | 75 nM |
| Cc1c(N(Cc2ccc(C(O)(C3CC3)C(F)(F)F)cc2)S(=O)(=O)c2ccc(C(=O)O)cc2)ncc2ccccc12 (centres unmarked) [Example 177] | 30 nM |
| Cc1c(N(Cc2ccc(C3CC3)cc2)S(=O)(=O)c2ccc(C(=O)O)cc2)ncc2ccccc12 [Example 41] | 12 nM |
| NC(=O)c1ccc(S(=O)(=O)N(Cc2ccc(OC(F)(F)F)cc2)c2ncc3ccccc3c2C2CC2)cc1 [Example 241] | 8.5 nM |

| Structure (SMILES) | IC50 |
| --- | --- |
| Cc1c(N(Cc2ccc(F)c(C(F)(F)C3CC3)c2)S(=O)(=O)c2ccc(C(=O)O)cc2)ncc2ccccc12 [Example 207] | 11 nM |
| Cc1c(N(Cc2ccc(C(O)(C(F)(F)F)C(F)(F)F)cc2)S(=O)(=O)c2ccc(C(=O)O)cc2)ncc2ccccc12 [Example 128] | 40 nM |
| O=C(O)c1ccc(S(=O)(=O)N(Cc2ccc(OC(F)(F)F)cc2)c2ncc3ccccc3c2C2CC2)cc1 [Example 104, 4-({(4-cyclopropylisoquinolin-3-yl)[4-(trifluoromethoxy)benzyl]amino}sulfonyl)benzoic acid] | 0.9 nM |
| Cc1c(N(Cc2ccc(C(C)(C)C)cc2)S(=O)(=O)c2ccc(C(=O)O)cc2)ncc2ccccc12 [Example 23] | 1.8 nM |
| Cc1cc2ccccc2nc1N(Cc1ccc(C(F)(F)C2CC2)cc1)S(=O)(=O)c1ccc(C(=O)O)cc1 [Example 182] | 4 nM |
| CC(=O)c1c(N(Cc2ccc(OC(F)(F)F)cc2)S(=O)(=O)c2ccc(C(=O)O)cc2)ncc2ccccc12 [Example 112, 4-({(4-acetylisoquinolin-3-yl)[4-(trifluoromethoxy)benzyl]amino}sulfonyl)benzoic acid] | 14 nM |
| CNC(=O)c1ccc(S(=O)(=O)N(Cc2ccc(OC(F)(F)F)cc2)c2ncc3ccccc3c2C)cc1 [Example 238] | 103 nM |
| Cc1ccc2cnc(N(Cc3ccc(OC(F)(F)F)cc3)S(=O)(=O)c3ccc(C(=O)O)cc3)c(C)c2c1 [Example 135] | 136 nM |
| Cc1c(N(Cc2ccc(OC(F)(F)F)cc2)S(=O)(=O)c2ccc(C(N)=O)cc2)ncc2ccccc12 [Example 123, 4-({(4-methylisoquinolin-3-yl)[4-(trifluoromethoxy)benzyl]amino}sulfonyl)benzamide] | 21 nM |
| COC(C)(c1ccc(CN(c2ncc3ccccc3c2C)S(=O)(=O)c2ccc(C(=O)O)cc2)cc1)C(F)(F)C(F)(F)F (centres unmarked) [Example 224] | 5.9 nM |
| Cc1c(N(Cc2ccc3c(c2)c(Cl)cn3C)S(=O)(=O)c2ccc(C(=O)O)cc2)ncc2ccccc12 [Example 237] | 12 nM |
| Cc1c(N(Cc2ccc3c(Cl)cn(C)c3c2)S(=O)(=O)c2ccc(C(=O)O)cc2)ncc2ccccc12 [Example 122, 4-{[[(3-chloro-1-methyl-1H-indol-6-yl)methyl](4-methylisoquinolin-3-yl)amino]sulfonyl}benzoic acid] | 57 nM |
| CCc1c(N(Cc2ccc(OC(F)(F)F)cc2)S(=O)(=O)c2ccc(C(=O)O)cc2)ncc2ccccc12 [Example 155] | 6.2 nM |
| NC(=O)c1ccc(S(=O)(=O)N(Cc2ccc(OC(F)(F)F)cc2)c2ncc3ccccc3c2C(F)(F)F)cc1 [Example 242] | 10 nM |
| Cc1c(N(Cc2ccc(OC3CCCC3)cc2)S(=O)(=O)c2ccc(C(=O)O)cc2)ncc2ccccc12 [Example 46] | 17 nM |
| Cc1c(N(Cc2cccc3ccccc23)S(=O)(=O)c2ccc(C(=O)O)cc2)ncc2ccccc12 [Example 31] | 65 nM |
| CCc1nc(N(Cc2ccc(OC(F)(F)F)cc2)S(=O)(=O)c2ccc(C(=O)O)cc2)c(C)c2ccccc12 [Example 214] | 8.1 nM |
| Cc1cc2ccccc2nc1N(Cc1ccc(C(F)(F)C2CC2)c(F)c1)S(=O)(=O)c1ccc(C(=O)O)cc1 [Example 204] | 3.1 nM |
| CCOC(C)(c1ccc(CN(c2ncc3ccccc3c2C)S(=O)(=O)c2ccc(C(=O)O)cc2)cc1)C(F)(F)F (centres unmarked) [Example 14, 4-{[[4-(1-ethoxy-2,2,2-trifluoro-1-methylethyl)benzyl](4-methylisoquinolin-3-yl)amino]sulfonyl}benzoic acid] | 4.7 nM |

| Structure (SMILES) | IC50 |
| --- | --- |
| Cc1cccc2c(C)c(N(Cc3ccc(OC(F)(F)F)cc3)S(=O)(=O)c3ccc(C(=O)O)cc3)ncc12 [Example 136] | 31 nM |
| CC(C)c1nc(N(Cc2ccc(OC(F)(F)F)cc2)S(=O)(=O)c2ccc(C(=O)O)cc2)c(C(C)C)c2ccccc12 [Example 150] | 48 nM |
| CC(=O)c1ccc(S(=O)(=O)N(Cc2ccc(OC(F)(F)F)cc2)c2ncc3ccccc3c2C)cc1 [Example 152, 4-acetyl-N-(4-methylisoquinolin-3-yl)-N-[4-(trifluoromethoxy)benzyl]benzenesulfonamide] | 95 nM |
| Cc1c(N(Cc2ccc(F)c(C(F)(F)F)c2)S(=O)(=O)c2ccc(C(=O)O)cc2)nc(C2CC2)c2ccccc12 [Example 132] | 3.8 nM |
| Cc1cc2ccccc2nc1N(Cc1ccc(F)c(C(F)(F)C2CC2)c1)S(=O)(=O)c1ccc(C(=O)O)cc1 [Example 208] | 9.6 nM |
| Cc1c(N(Cc2ccc(C(C)(O)C(F)(F)F)c(Cl)c2)S(=O)(=O)c2ccc(C(=O)O)cc2)ncc2ccccc12 (centres unmarked) [Example 172] | 15 nM |
| CC(C)c1nc(N(Cc2ccc(OC(F)(F)F)cc2)S(=O)(=O)c2ccc(C(=O)O)cc2)c(C(F)(F)F)c2ccccc12 [Example 110, 4-({[1-isopropyl-4-(trifluoromethyl)isoquinolin-3-yl][4-(trifluoromethoxy)benzyl]amino}sulfonyl)benzoic acid] | 7.4 nM |
| CONC(=O)c1ccc(S(=O)(=O)N(Cc2ccc(OC(F)(F)F)cc2)c2ncc3ccccc3c2C)cc1 [Example 124, N-methoxy-4-({(4-methylisoquinolin-3-yl)[4-(trifluoromethoxy)benzyl]amino}sulfonyl)benzamide] | 13 nM |
| Cc1c(N(Cc2cccc(C(F)(F)C3CC3)c2)S(=O)(=O)c2ccc(C(=O)O)cc2)ncc2ccccc12 [Example 205] | 31 nM |
| Cc1c(N(Cc2ccc3c(c2)CCCC3)S(=O)(=O)c2ccc(C(=O)O)cc2)ncc2ccccc12 [Example 56] | 4.7 nM |
| Cc1c(N(Cc2ccc(OC3CC3)cc2)S(=O)(=O)c2ccc(C(=O)O)cc2)ncc2ccccc12 [Example 45] | 35 nM |
| Cc1c(N(Cc2ccc3c(c2)CC(C)(C)O3)S(=O)(=O)c2ccc(C(=O)O)cc2)ncc2ccccc12 [Example 80] | 18 nM |
| O=C(O)c1ccc(S(=O)(=O)N(Cc2ccc(OC(F)(F)F)cc2)c2cc3c(Cl)cccc3c(Br)n2)cc1 [Example 148] | 287 nM |
| Cc1c(N(Cc2ccc3c(c2)CCC3(O)C(F)(F)F)S(=O)(=O)c2ccc(C(=O)O)cc2)ncc2ccccc12 (centres unmarked) [Example 173] | 78 nM |
| Cc1c(N(Cc2ccc(C(F)(F)C3CCC3)cc2)S(=O)(=O)c2ccc(C(=O)O)cc2)ncc2ccccc12 [Example 189] | 1.7 nM |
| Cc1cc2ccccc2nc1N(Cc1ccc(F)c(C(F)(F)F)c1)S(=O)(=O)c1ccc(C(=O)O)cc1 [Example 20] | 12 nM |
| Cc1c(N(Cc2ccc(-c3ccccc3)cc2)S(=O)(=O)c2ccc(C(=O)O)cc2)ncc2ccccc12 [Example 27] | 26 nM |
| Cc1cc2ccccc2nc1N(Cc1ccc2c(c1)CCCC2)S(=O)(=O)c1ccc(C(=O)O)cc1 [Example 180] | 6.9 nM |
